From ChEMBL document CHEMBL1157993, “Structure-antimutagenic activity relationship study of plicatin B” (J Nat Prod, 1999)

Tests used:
[1] = test system: Salmonella typhimurium; test: Antimutagenic activity in Salmonella Typhimurium TA100 assessed as inhibition of ethyl methanesulfonate-induced mutation at 7.8 uM treated for 30 mins and measured after 2 days by modified Ames test; format: functional, Salmonella enterica subsp. enterica serovar Typhimurium; conditions: Salmonella enterica
[2] = test system: Salmonella typhimurium; test: Antimutagenic activity in Salmonella Typhimurium TA100 assessed as inhibition of ethyl methanesulfonate-induced mutation at 3.9 uM treated for 30 mins and measured after 2 days by modified Ames test; format: functional, Salmonella enterica subsp. enterica serovar Typhimurium; conditions: Salmonella enterica
[3] = test system: Salmonella typhimurium; test: Antimutagenic activity in Salmonella Typhimurium TA100 assessed as inhibition of ethyl methanesulfonate-induced mutation at 125 uM treated for 30 mins and measured after 2 days by modified Ames test; format: functional, Salmonella enterica subsp. enterica serovar Typhimurium; conditions: Salmonella enterica
[4] = test system: Salmonella typhimurium; test: Antimutagenic activity in Salmonella Typhimurium TA100 assessed as inhibition of ethyl methanesulfonate-induced mutation at 3.9 to 125 uM treated for 30 mins and measured after 2 days by modified Ames test; format: functional, Salmonella enterica subsp. enterica serovar Typhimurium
[5] = Cytotoxicity against Salmonella Typhimurium TA100 assessed as maximun non-toxic concentrations after 15 hrs […]; format: organism-based; conditions: salmonella enterica subsp. enterica serovar typhimurium, Salmonella Typhimurium TA100 cells; read-out: Activity
[6] = test system: Salmonella typhimurium; test: Antimutagenic activity in Salmonella Typhimurium TA100 assessed as inhibition of ethyl methanesulfonate-induced mutation at 31.3 uM treated for 30 mins and measured after 2 days by modified Ames test; format: functional, Salmonella enterica subsp. enterica serovar Typhimurium; conditions: Salmonella enterica
[7] = test system: Salmonella typhimurium; test: Antimutagenic activity in Salmonella Typhimurium TA100 assessed as inhibition of ethyl methanesulfonate-induced mutation at 15.6 ug/mL treated for 30 mins and measured after 2 days by modified Ames test; format: functional, Salmonella enterica subsp. enterica serovar Typhimurium; conditions: Salmonella enterica
[8] = test system: Salmonella typhimurium; test: Antimutagenic activity in Salmonella Typhimurium TA100 assessed as inhibition of ethyl methanesulfonate-induced mutation at 82.5 uM treated for 30 mins and measured after 2 days by modified Ames test; format: functional, Salmonella enterica subsp. enterica serovar Typhimurium; conditions: Salmonella enterica
[9] = test system: Salmonella typhimurium; test: Antimutagenic activity in Salmonella Typhimurium TA100 assessed as inhibition of ethyl methanesulfonate-induced mutation at 25 ug/mL treated for 30 mins and measured after 2 days by modified Ames test; format: functional, Salmonella enterica subsp. enterica serovar Typhimurium; conditions: Salmonella enterica

Row | SMILES | inhibition at 7.8 µM [1] | inhibition at 3.9 µM [2] | also measured
1 | O=C(O)/C=C/c1ccc(O)cc1 [COUMARIC ACID] | 13.6% | 11.2% | inhibition at 125 µM [3]: 49.8%
2 | COC(=O)CCc1ccc(O)cc1 [4-HYDROXYHYDROCINNAMIC ACID METHYL ESTER] |  |  | inhibition (INH) [4]: 0%
3 | COC(=O)CCc1ccc(O)c(CC=C(C)C)c1 | 38.5% | 25.2% | MNTC at 15 h [5]: 31.3 µM; inhibition at 31.3 µM [6]: 46.8%
4 | COC(=O)/C=C/c1ccc(OC)c(CC=C(C)C)c1 [PALICATIN B METHYL ETHER] | 21.5% | 13.2% | 
5 | CC(C)=CCc1cc(/C=C/C(=O)O)ccc1O [DRUPANIN] | 0.6% | 0.3% | inhibition at 15.6 µg/mL [7]: 12%
6 | CC(C)=CCc1cc(/C=C/CO)ccc1O | 27.1% | 20.2% | inhibition at 31.3 µM [6]: 36.8%
7 | COC(=O)/C=C/c1ccc(O)c(CC=C(C)C)c1 [PLICATIN B] | 30.2% | 25.4% | 
8 | COC(=O)/C=C/c1ccc(O)cc1 [METHYL P-HYDROXYCINNAMATE] | 0.9% | 0% | inhibition at 82.5 µM [8]: 7.6%
9 | O=C/C=C/c1ccccc1 [CINNAMALDEHYDE] |  |  | inhibition at 25 µg/mL [9]: 30%; MNTC at 15 h [5]: 25 µg/mL
